According to patent US20250171484A1, “METHOD FOR PRODUCING DISACCHARIDE USING BETA-GLUCOSIDASE AND COFACTOR THEREOF AND COMPOSITION FOR INDUCING ENZYME PRODUCTION OF STRAIN OF GENUS TRICHODERMA COMPRISING PRODUCED DISACCHARIDE” (CJ CheilJedang Corporation, priority 2021, published 2025):

Tested on: β-glucosidase (SEQ ID NO: 1)
Assay: Disaccharide production from glucose by beta-glucosidase with added divalent metal ion
Format: biochemical, Trichoderma reesei
Settings: for Concentration (g/L) Cellobiose / Concentration (g/L) Gentiobiose / Concentration (g/L) Isomaltose / Concentration (g/L) Maltose / Concentration (g/L) Sophorose / Concentration (g/L) Trehalose / Concentration (g/L) Total: 1 mM ion, 60° C.; for Concentration (g/L) Total: total equals gentiobiose + sophorose; for Increase/decrease rate (%) Gentiobiose / Increase/decrease rate (%) Sophorose / Increase/decrease rate (%) Total: versus no ion added
Experimental: Glucose powder with a purity of 95% or more (hydrous crystalline glucose, Daejung Chemicals & Metals) was dissolved using steam to prepare 40 kg of a glucose solution with a concentration of 71% w/w. 0.3 kg of β-glucosidase (SEQ ID NO: 1) was added at a concentration of 1,650 U/ml to the prepared glucose solution, allowed to stand at 60° C. for 7 days to 21 days to prepare a composition comprising disaccharides (Treated Glucose Syrup, TGS). 0.3 kg of β-glucosidase (same as in Example 1) was added to the glucose solution of Example 1 at a concentration of 1,650 U/ml, and 1 mM of divalent ions [manganese ion (Mn^2+), magnesium ion (Mg^2+), zinc ion (Zn^2+), and copper ion (Cu^2+) each] was further added thereto, and allowed to stand at 60° C. for 7 days to 21 days to prepare a composition containing disaccharides. In the compositions prepared in Examples 1 and 2, the production concentration (g/L) and increase/decrease rate (%) of the disaccharides, i.e. trehalose, isomaltose, maltose, cellobiose, gentiobiose, and sophorose were measured, and the results are shown in Table 1 and Table 2 below. The production concentration was analyzed using a Bio-LC system (Dionex ICS-3000, Sunnyvale, CA, United States) equipped with an electrochemical detector and a CarboPac PAI column.

Structure (SMILES) | Concentration (g/L) Cellobiose (standing period 7 days) | Concentration (g/L) Gentiobiose (standing period 7 days) | Concentration (g/L) Isomaltose (standing period 7 days) | Concentration (g/L) Maltose (standing period 7 days) | Concentration (g/L) Sophorose (standing period 7 days) | Concentration (g/L) Trehalose (standing period 7 days) | Concentration (g/L) Total (standing period 7 days) | Increase/decrease rate (%) Gentiobiose (standing period 7 days) | Increase/decrease rate (%) Sophorose (standing period 7 days) | Increase/decrease rate (%) Total (standing period 7 days) | Concentration (g/L) Cellobiose (standing period 14 days) | Concentration (g/L) Gentiobiose (standing period 14 days) | Concentration (g/L) Isomaltose (standing period 14 days) | Concentration (g/L) Maltose (standing period 14 days) | Concentration (g/L) Sophorose (standing period 14 days) | Concentration (g/L) Trehalose (standing period 14 days) | Concentration (g/L) Total (standing period 14 days) | Increase/decrease rate (%) Gentiobiose (standing period 14 days) | Increase/decrease rate (%) Sophorose (standing period 14 days) | Increase/decrease rate (%) Total (standing period 14 days) | also measured
[Cu+2] [Cu^2+, copper ion (Cu^2+)] | 15.1 g/L | 71.7 g/L | 8 g/L | 18.7 g/L | 13.3 g/L | 19.4 g/L | 85 g/L | 22.8% | 92.2% | 30.1% | 15.2 g/L | 82.1 g/L | 10.3 g/L | 15.9 g/L | 17 g/L | 12.6 g/L | 99.1 g/L | 16.3% | 33.5% | 18.9% | Concentration (g/L) Cellobiose (standing period 21 days): 15.5 g/L; Concentration (g/L) Gentiobiose (standing period 21 days): 92.4 g/L; Concentration (g/L) Isomaltose (standing period 21 days): 12.4 g/L; Concentration (g/L) Maltose (standing period 21 days): 16.8 g/L; Concentration (g/L) Sophorose (standing period 21 days): 24.3 g/L; Concentration (g/L) Trehalose (standing period 21 days): 13 g/L; Concentration (g/L) Total (standing period 21 days): 116.7 g/L; Increase/decrease rate (%) Gentiobiose (standing period 21 days): 11.7%; Increase/decrease rate (%) Sophorose (standing period 21 days): 53.0%; Increase/decrease rate (%) Total (standing period 21 days): 18.4%
[Mg+2] [Mg^2+, magnesium ion (Mg^2+)] | 13.1 g/L | 64.3 g/L | 6.7 g/L | 13.7 g/L | 10.8 g/L | 21.1 g/L | 75.1 g/L | 10% | 56.8% | 15% | 15.6 g/L | 69.4 g/L | 10.6 g/L | 14.6 g/L | 17.4 g/L | 15.3 g/L | 86.8 g/L | −1.6% | 36.5% | 4.2% | Concentration (g/L) Cellobiose (standing period 21 days): 15.4 g/L; Concentration (g/L) Gentiobiose (standing period 21 days): 74.6 g/L; Concentration (g/L) Isomaltose (standing period 21 days): 13.2 g/L; Concentration (g/L) Maltose (standing period 21 days): 15.4 g/L; Concentration (g/L) Sophorose (standing period 21 days): 23.1 g/L; Concentration (g/L) Trehalose (standing period 21 days): 14.8 g/L; Concentration (g/L) Total (standing period 21 days): 97.7 g/L; Increase/decrease rate (%) Gentiobiose (standing period 21 days): −9.8%; Increase/decrease rate (%) Sophorose (standing period 21 days): 45.3%; Increase/decrease rate (%) Total (standing period 21 days): −0.9%
[Mn+2] [Mn^2+, manganese ion (Mn^2+)] | 14.5 g/L | 69.5 g/L | 8.6 g/L | 16.8 g/L | 11.6 g/L | 21.7 g/L | 81.1 g/L | 18.9% | 67.8% | 24.1% | 15.4 g/L | 78 g/L | 12.4 g/L | 16.1 g/L | 16.5 g/L | 14.6 g/L | 94.5 g/L | 10.5% | 29.2% | 13.4% | Concentration (g/L) Cellobiose (standing period 21 days): 15.5 g/L; Concentration (g/L) Gentiobiose (standing period 21 days): 86.5 g/L; Concentration (g/L) Isomaltose (standing period 21 days): 15.7 g/L; Concentration (g/L) Maltose (standing period 21 days): 17.1 g/L; Concentration (g/L) Sophorose (standing period 21 days): 23.6 g/L; Concentration (g/L) Trehalose (standing period 21 days): 14.1 g/L; Concentration (g/L) Total (standing period 21 days): 110.2 g/L; Increase/decrease rate (%) Gentiobiose (standing period 21 days): 4.6%; Increase/decrease rate (%) Sophorose (standing period 21 days): 48.7%; Increase/decrease rate (%) Total (standing period 21 days): 11.7%
[Zn+2] [Zn^2+, zinc ion (Zn^2+)] | 14.8 g/L | 69.9 g/L | 7.3 g/L | 15.8 g/L | 12.6 g/L | 22.2 g/L | 82.5 g/L | 19.7% | 82.8% | 26.3% | 14.9 g/L | 81 g/L | 9.8 g/L | 14.3 g/L | 16.4 g/L | 14.3 g/L | 97.3 g/L | 14.7% | 28.4% | 16.8% | Concentration (g/L) Cellobiose (standing period 21 days): 15 g/L; Concentration (g/L) Gentiobiose (standing period 21 days): 92 g/L; Concentration (g/L) Isomaltose (standing period 21 days): 12.5 g/L; Concentration (g/L) Maltose (standing period 21 days): 15.2 g/L; Concentration (g/L) Sophorose (standing period 21 days): 23.4 g/L; Concentration (g/L) Trehalose (standing period 21 days): 14.5 g/L; Concentration (g/L) Total (standing period 21 days): 115.4 g/L; Increase/decrease rate (%) Gentiobiose (standing period 21 days): 11.3%; Increase/decrease rate (%) Sophorose (standing period 21 days): 47.1%; Increase/decrease rate (%) Total (standing period 21 days): 17%
